Data from BindingDB's records for doi:10.1016/0014-2999(92)90578-r (Novo Nordisk, 1992).
Several values for one entry are separate records, joined by “and”; a condition that tells them apart may be missing. Identical values can stand only once.

Key:
[1] = molecular target: 5-hydroxytryptamine receptor 2A (Rattus norvegicus, UniProt P14842)
D(2) dopamine receptor = D(2) dopamine receptor (Rattus norvegicus, UniProt P61169)
D(1A) dopamine receptor = D(1A) dopamine receptor (Rattus norvegicus, UniProt P18901)
D(1A) dopamine receptor, sequence (P18901 whole entry): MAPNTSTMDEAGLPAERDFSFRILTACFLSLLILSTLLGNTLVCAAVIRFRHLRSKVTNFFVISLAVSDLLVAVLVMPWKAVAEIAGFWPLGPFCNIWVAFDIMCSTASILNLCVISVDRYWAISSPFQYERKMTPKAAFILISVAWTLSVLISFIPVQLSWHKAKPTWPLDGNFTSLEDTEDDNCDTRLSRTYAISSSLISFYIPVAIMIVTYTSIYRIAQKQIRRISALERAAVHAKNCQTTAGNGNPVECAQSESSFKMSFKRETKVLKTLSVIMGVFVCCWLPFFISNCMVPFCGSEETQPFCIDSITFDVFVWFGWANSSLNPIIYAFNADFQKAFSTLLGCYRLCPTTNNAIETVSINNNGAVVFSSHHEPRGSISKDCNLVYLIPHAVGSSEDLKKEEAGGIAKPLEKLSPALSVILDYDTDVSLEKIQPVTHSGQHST

Adenylate cyclase type 2 = Adenylate cyclase type 2 (Rattus norvegicus, UniProt P26769)
Adenylate cyclase type 2, sequence (P26769 whole entry): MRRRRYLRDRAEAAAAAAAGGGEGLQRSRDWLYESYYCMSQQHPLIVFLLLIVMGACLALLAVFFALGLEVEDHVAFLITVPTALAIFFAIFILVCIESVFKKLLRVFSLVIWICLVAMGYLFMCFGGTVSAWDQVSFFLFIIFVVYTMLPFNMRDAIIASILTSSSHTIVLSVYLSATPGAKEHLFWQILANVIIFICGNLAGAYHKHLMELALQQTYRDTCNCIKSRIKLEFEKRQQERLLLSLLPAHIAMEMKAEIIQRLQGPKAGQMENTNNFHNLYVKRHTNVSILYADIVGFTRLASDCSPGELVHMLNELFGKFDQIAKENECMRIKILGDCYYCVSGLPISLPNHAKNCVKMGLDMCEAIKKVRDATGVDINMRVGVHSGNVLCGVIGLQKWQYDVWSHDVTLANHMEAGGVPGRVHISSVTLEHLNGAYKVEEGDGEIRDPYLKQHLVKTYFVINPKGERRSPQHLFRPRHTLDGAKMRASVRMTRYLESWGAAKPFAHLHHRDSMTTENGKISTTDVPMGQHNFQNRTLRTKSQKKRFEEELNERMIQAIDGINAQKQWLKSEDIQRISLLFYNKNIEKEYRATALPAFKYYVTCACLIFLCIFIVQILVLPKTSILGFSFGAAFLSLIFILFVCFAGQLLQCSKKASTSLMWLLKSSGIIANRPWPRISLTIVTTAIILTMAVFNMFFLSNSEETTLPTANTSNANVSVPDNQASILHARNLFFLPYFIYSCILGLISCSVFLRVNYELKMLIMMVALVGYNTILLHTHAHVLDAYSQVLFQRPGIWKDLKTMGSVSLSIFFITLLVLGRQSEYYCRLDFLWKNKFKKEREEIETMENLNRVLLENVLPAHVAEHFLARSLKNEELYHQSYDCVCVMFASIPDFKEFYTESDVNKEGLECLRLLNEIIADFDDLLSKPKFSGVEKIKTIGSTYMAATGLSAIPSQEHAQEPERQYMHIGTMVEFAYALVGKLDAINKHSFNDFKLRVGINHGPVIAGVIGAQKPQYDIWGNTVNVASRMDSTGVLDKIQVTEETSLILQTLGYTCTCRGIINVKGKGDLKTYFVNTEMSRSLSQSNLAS

D(2) dopamine receptor, sequence (P61169 whole entry): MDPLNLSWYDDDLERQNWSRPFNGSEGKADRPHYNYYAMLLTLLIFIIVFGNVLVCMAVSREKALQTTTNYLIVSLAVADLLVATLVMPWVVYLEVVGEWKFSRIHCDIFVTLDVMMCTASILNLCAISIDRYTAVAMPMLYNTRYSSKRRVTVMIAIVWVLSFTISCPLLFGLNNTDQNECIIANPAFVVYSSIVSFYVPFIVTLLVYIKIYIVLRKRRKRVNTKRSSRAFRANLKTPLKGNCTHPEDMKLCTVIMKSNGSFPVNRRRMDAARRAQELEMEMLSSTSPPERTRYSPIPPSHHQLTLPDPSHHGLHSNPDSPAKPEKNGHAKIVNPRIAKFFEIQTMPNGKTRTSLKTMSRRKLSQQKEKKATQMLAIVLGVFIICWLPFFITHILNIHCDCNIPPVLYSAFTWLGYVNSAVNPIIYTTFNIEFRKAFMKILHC
5-hydroxytryptamine receptor 2A, sequence (P14842 whole entry): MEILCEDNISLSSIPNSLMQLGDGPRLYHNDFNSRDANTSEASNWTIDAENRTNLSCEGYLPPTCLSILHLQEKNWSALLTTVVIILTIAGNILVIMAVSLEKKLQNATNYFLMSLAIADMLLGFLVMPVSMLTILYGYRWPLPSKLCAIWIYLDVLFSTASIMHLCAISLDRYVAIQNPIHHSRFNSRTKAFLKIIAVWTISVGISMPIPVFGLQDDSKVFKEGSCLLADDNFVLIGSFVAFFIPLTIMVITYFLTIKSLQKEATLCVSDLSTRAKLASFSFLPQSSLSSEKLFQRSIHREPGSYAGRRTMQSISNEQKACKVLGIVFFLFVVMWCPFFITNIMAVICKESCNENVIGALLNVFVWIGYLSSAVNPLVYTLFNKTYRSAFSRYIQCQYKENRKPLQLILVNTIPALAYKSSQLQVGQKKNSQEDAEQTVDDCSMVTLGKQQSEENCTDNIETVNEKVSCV

Ki [1] [nM]	Ki (D(2) dopamine receptor)	Ki (D(1A) dopamine receptor) [nM]	Ki (Adenylate cyclase type 2) [nM]	SMILES
4.5	942 nM	0.17	2.2	CN1CCc2cc(Cl)c(O)cc2C(c2cccc3c2OCC3)C1 (stereo not drawn) [NSC_132421]
	898 nM and 988 nM		2.8	CN1CCc2cc(Cl)c(O)cc2[C@@H](c2cccc3ccoc23)C1
			39.9	CN1CCc2cc(Cl)c(O)cc2[C@@H](c2ccccc2)C1 [SCH 23390,R(+)]
355	> 10000 nM	5.8	9.1	CN1CCc2cc([N+](=O)[O-])c(O)cc2C(c2cccc3c2OCC3)C1 (stereo not drawn) [CAS_164252]
> 10000			415	Oc1cc2c(cc1O)[C@@H](c1ccccc1)CNCC2
